What was measured:
Assay type in all cases: in vivo
[1] = system: rice green leafhopper (nephotettix virescens); experiment: Rice green leafhopper on sprayed rice seedlings; conditions: 300 ppm, adults, after 72 hours
Procedure: II.12 Rice Green Leafhopper (nephotettix virescens)
Rice seedlings were cleaned and washed 24 hours before spraying. The active compounds were formulated in 50:50 acetone:water (vol/vol), and 0.1% (vol/vol) surfactant (EL 620) was added. Potted rice seedlings were sprayed with 5 ml test solution, air dried, placed in cages and inoculated with 10 adults. Treated rice plants were kept at about 28-29° C. and relative humidity of about 50-60%. Percent mortality was recorded after 72 hours.

[2] = system: green peach aphid (Myzus persicae); experiment: Green peach aphid, pepper plant leaf dip test; conditions: 300 ppm; pepper plants dipped; after 5 days
From the text: II.11 Green Peach Aphid (myzus persicae)
(§1) The active compounds were formulated in 50:50 acetone:water (vol/vol) and 100 ppm Kinetic™ surfactant.
Pepper plants in the 2nd leaf-pair stage (variety “California Wonder”) were infested with approximately 40 laboratory-reared aphids by placing infested leaf sections on top of the test plants. The leaf sections were removed after 24 hr. The leaves of the intact plants were dipped into gradient solutions of the test compound and allowed to dry. Test plants were maintained under fluorescent light (24 hour photoperiod) at about 25° C. and about 20-40% relative humidity. Aphid mortality on the treated plants, relative to mortality on check plants, was determined after 5 days.

[3] = system: silverleaf whitefly (bemisia argentifolii); experiment: Silverleaf whitefly, cotton cotyledon dip test; conditions: 300 ppm; cotyledons dipped; 3 days after treatment
Procedure: II.9 Silverleaf Whitefly (bemisia argentifolii)
as §1
Selected cotton plants were grown to the cotyledon state (one plant per pot). The cotyledons were dipped into the test solution to provide complete coverage of the foliage and placed in a well-vented area to dry. Each pot with treated seedling was placed in a plastic cup and 10 to 12 whitefly adults (approximately 3-5 day old) were introduced. The insects were collected using an aspirator and a Tygon® tubing connected to a barrier pipette tip. The tip containing the collected insects was then gently inserted into the soil containing the treated plant allowing insects to crawl out of the tip to reach the foliage for feeding. The cups were covered with a re-usable screened lid. Test plants were maintained in the holding room at about 25° C. and about 20-40% relative humidity for 3 days avoiding direct exposure to the fluorescent light (24 hour photoperiod) to prevent trapping of heat inside the cup. Mortality was assessed 3 days after treatment of the plants.

adult female rats = experiment: Acute oral rat toxicity study, single oral gavage, 14 days observation; conditions: three rats per study, single oral gavage dose 100 mg/kg bw
Procedure: Some representatives of the compounds according to the present invention have been tested in acute oral rat toxicity studies.
In these studies, test substances were administered to adult female rats by oral gavage for one time. The compounds were administered as a 1% b.w. suspension or the compound in a 1% aqueous carboxymethyl cellulose solution. In each study three rats were used. The animals were treated with a single dose of 100 mg/kg bw. […] After the 14 day observation period, the animals were sacrificed, dissected, and examined for gross pathological lesions.

Row | SMILES | Lethality (cumulative) 0-5 h after treatment (adult female rats) | Lethality (cumulative) 1 d after treatment (adult female rats) | Lethality (cumulative) 2 d after treatment (adult female rats) | Lethality (cumulative) 7 d after treatment (adult female rats) | Lethality (cumulative) 14 d after treatment (adult female rats) | further results
1 | COc1cc(CN2C(=O)c3cc(-c4ccc(F)cc4F)ccc3S2(=O)=O)ccn1 [I.19] | – | – | – | – | – | mortality in comparison with untreated controls [1]: over 75%
2 | O=C1c2cc(-c3ccc(F)cc3F)ccc2S(=O)(=O)N1Cc1ccncc1 [I.20] | – | – | – | – | – | mortality in comparison with untreated controls [2]: over 75%
3 | O=C1c2cc(-c3ccc(F)cc3F)ccc2S(=O)(=O)N1Cc1ccnc2cc(C(F)(F)F)ccc12 [I.28] | – | – | – | – | – | mortality in comparison with untreated controls [3]: over 75%
4 | Cc1nccc(CN2C(=O)c3cc(-c4ccc(C(F)(F)F)cc4Cl)ccc3S2(=O)=O)c1C [I.34] | 0 | 0 | 0 | 0 | 1 | –
5 | Cc1nccc(CN2C(=O)c3cc(-c4ccc(Cl)cc4C(F)(F)F)ccc3S2(=O)=O)c1C [I.35] | 0 | 0 | 0 | 0 | 2 | –

— patent US20110166162A1, “1,2-Benzisothiazole Compounds Useful for Combating Animal Pests” (priority 2007, published 2011)
